Entries after “also recorded” stand apart in the source; their conditions may differ.
How the values were obtained:
[1] = Blood glucose concentration after 2 l of beverage in overnight-fasted male subjects; assay type: in vivo, human; details: 8 fasting male subjects; 2 l consumed between -120 and -40 min; FIG. 2
Description: 2 l of each beverage were consumed between −120 and −40 min.
After an overnight fast, each subject consumed 2 l of one solution (between −120 min and −40 min in FIG. 1). All subjects had to ingest all types of solution, however in random order. Simultaneously, blood samples were taken and analyzed for plasma glucose and haemoglobin concentration as well as haematocrit. RER measurements confirmed that all subjects were in a fasting state.

[2] = Hydration effect of glycerol solutions by concentration; assay type: in vivo, human; details: also printed as 18 g/l
[3] = cited from earlier work
[4] = large doses; cited from earlier work

OCC(O)CO [glycerol, propane-1,2,3-triol]
Blood glucose concentration [1]: does not increase blood glucose levels; also recorded: remained unaffected
Concentration at which appreciable hydration effects are seen [2]: above 0.2 mol/l
Hepatic glucose production ([3]; compared with fasting control conditions without exogenous glycerol load): does not increase hepatic glucose production
Plasma glucose concentrations ([3]; healthy fasting subjects, glycerol supplementation): does not increase plasma glucose concentrations
Toxicity [4]: non-toxic

From patent US20110112014A1 (priority 2008, published 2011)
